Entries after “also recorded” stand apart in the source; their conditions may differ. Read-outs that look alike come from different tables or passages of the source.
Legend:
male Sprague-Dawley rats [1] = assay: Food-induced conditioned place preference; format: in vivo
Description: In order to test food-induced CPP in rodents, four groups of rats were allowed access to food ad libitum during the entire 12 session of CPP procedure. The 12 session CPP procedure was exactly the same as the procedure used in the cocaine induced CPP studies except the appetitive substance was food rather than cocaine. […] The animals in all four groups were habituated to Froot Loops, a fruit-flavored breakfast cereal that is very appealing to laboratory rats, in the appropriate chamber in the test room during four habituating sessions. […] The amount of time spent in the paired and unpaired chambers was recorded using an automated device.
In this example the procedure outlined in Section 3 of Materials and Methods was followed.

male F344 rats = conditions: cited from earlier work
rats = assay: Nicotine-induced conditioned place preference; format: in vivo
Description: A total of 8 rats were examined for each treatment pairing. Animals received 4 pairings over an 8 day period, one pairing per day. […] The protocol on days 1 and 2 was repeated 3 additional times.
The CPP apparatus was made entirely of plexiglass, except for the floor in one of the pairing chambers, which was made of a stainless steel plate with holes (0.5 mm in diameter) spaced 0.5 mm from edge to edge. The two pairing chambers differed in visual and tactile cues. One chamber was entirely light blue with the stainless steel floor and the second chamber was light blue with horizontal black stripes (2.5 cm wide) spaced 3.8 cm apart with a smooth plexiglass floor.
The conditioning procedure consisted of 20 sessions carried out consecutively over 20 days. The first three sessions were habituation sessions, during which the animals were handled for 5 minutes per day and exposed to the sights and sounds of the test room. […] The amount of time spent in each chamber was recorded using an automated infrared beam electronically coupled to a timer.
The animals were habituated as described above. […] Subsequently, the animals were then placed into the appropriate chamber for 30 minutes. This was repeated for 8 pairings over a 16 day period. On the test day, animals were placed in the CPP apparatus and allowed free access to the all of the CPP chambers and the amount of time spent in chamber was recorded.

Sprague-Dawley rats = assay: Gross locomotor activity during microdialysis (infrared motion sensor); conditions: GVG, during the 2.5 hour pretreatment interval
Description: In parallel to the quantitative estimates of dopamine concentration, the locomotor response of these animals to stimulant administration was simultaneously quantified using an infrared motion sensor. This infrared optical proximity detector monitored movement of the gimbaled arm, an integral component of the freely moving system. The digital output of the detector was interfaced with an IBM personal computer and programmed to count both positive and negative arm deflections. […] Locomotor activity was then expressed as the number of deflections per sample interval.

male Sprague-Dawley rats [2] = format: in vivo
Description: In all rodent studies, male Sprague-Dawley rats were used (200-225 g, Taconic farms, Germantown, N.Y.). Animals were allowed to acclimate to the animal housing facility for at least 5 days prior to beginning the experiments. […] The conditioning procedure for the acquisition phase consisted of 12 sessions carried out consecutively over 12 days.
The animals in each group were randomly assigned to a 2×2 factorial design with one factor being the pairing chamber and the other factor being the order of conditioning. The animals that received either saline or cocaine were injected and confined to the appropriate compartment for 30 minutes.
[…] The amount of time spent in each chamber was recorded using an automated infrared beam electronically coupled to a timer.
In this example the procedure outlined in Section 2 of Materials and Methods was followed.

rhesus monkeys = conditions: cited from earlier work
[3] = acquisition, GVG 37.5 mg/kg i.p. 2.5 hours before nicotine 0.4 mg/kg s.c., 8 pairings
[4] = acquisition, GVG 75 mg/kg i.p. 2.5 hours before nicotine 0.4 mg/kg s.c., 8 pairings
[5] = acquisition, GVG 75 mg/kg i.p. 2.5 hours prior to nicotine 0.4 mg/kg s.c. (Table XII)
[6] = expression, Saline/Nicotine pairings, GVG 37.5 mg/kg on test day
[7] = expression, Saline/Nicotine pairings, GVG 75 mg/kg on test day
[8] = expression, Saline/Nicotine pairings, GVG 150 mg/kg on test day
[9] = acquisition, 75 mg/kg GVG 2.5 hours prior to cocaine 20 mg/kg
[10] = acquisition, 75 mg/kg GVG/Saline pairing
[11] = acquisition, 112 mg/kg GVG 2.5 hours prior to cocaine 20 mg/kg
[12] = acquisition, 112 mg/kg GVG/Saline pairing
[13] = acquisition, 150 mg/kg GVG 2.5 hours prior to cocaine 20 mg/kg
[14] = acquisition, 150 mg/kg GVG/Saline pairing
[15] = acquisition, 300 mg/kg GVG 2.5 hours prior to cocaine 20 mg/kg
[16] = acquisition, 300 mg/kg GVG/Saline pairing
[17] = expression, Saline/Cocaine pairings, GVG 75 mg/kg on test day
[18] = expression, Saline/Cocaine pairings, GVG 112 mg/kg on test day
[19] = expression, Saline/Cocaine pairings, GVG 150 mg/kg on test day
[20] = expression, Saline/Cocaine pairings, GVG 300 mg/kg on test day
[21] = expression, Saline/Saline pairings, GVG 112 mg/kg on test day
[22] = expression, Saline/Saline pairings, GVG 150 mg/kg on test day
[23] = expression, Saline/Saline pairings, GVG 300 mg/kg on test day

SMILES: C=CC(N)CCC(=O)O (racemic) [GVG, 4-amino-5-hexanoic acid]
- Time spent in chambers, Paired (male Sprague-Dawley rats [1]; GVG 150 mg/kg ip / Food): 9.4 ± 0.4 min
- Time spent in chambers, Unpaired (male Sprague-Dawley rats [1]; GVG 150 mg/kg ip / Food): 5.6 ± 0.5 min
- Time spent in chambers, Paired (male Sprague-Dawley rats [1]; GVG 300 mg/kg ip / Food): 9.0 ± 0.5 min
- Time spent in chambers, Unpaired (male Sprague-Dawley rats [1]; GVG 300 mg/kg ip / Food): 6.0 ± 0.5 min
- CPP response to food (male Sprague-Dawley rats [1]; GVG 150 and 300 mg/kg): did not alter the CPP response to food
- decrease in brain stimulation reward thresholds produced by 2.5 and 5 mg/kg i.p. cocaine (male F344 rats; GVG 400 mg/kg): significantly antagonized
- brain stimulation reward thresholds (male F344 rats; GVG alone): dose-dependent increase
- acquisition of nicotine-induced CPP (rats; GVG 37.5 mg/kg): did not significantly block and not
- acquisition phase of nicotine-induced CPP (rats; GVG 75 mg/kg): significantly blocked; also recorded: abolish
- Time spent in chambers, Paired (rats; [3]): 8.8 ± 0.5 min
- Time spent in chambers, Unpaired (rats; [3]): 6.2 ± 0.5 min
- Time spent in chambers, Paired (rats; [4]): 6.9 ± 0.9 min
- Time spent in chambers, Unpaired (rats; [4]): 8.1 ± 0.9 min
- Time spent in chambers, Paired (rats; [5]): 6.4 ± 0.3^4 min
- Time spent in chambers, Unpaired (rats; [5]): 8.6 ± 0.3^5 min
- Time spent in chambers, Paired (rats; [6]): 6.8 ± 1.0 min
- Time spent in chambers, Unpaired (rats; [6]): 8.2 ± 1.0 min
- Time spent in chambers, Paired (rats; [7]): 6.4 ± 0.3 min
- Time spent in chambers, Unpaired (rats; [7]): 8.6 ± 0.3 min
- Time spent in chambers, Paired (rats; [8]): 5.0 ± 0.9 min
- Time spent in chambers, Unpaired (rats; [8]): 10.0 ± 0.9 min
- gross locomotor activity (Sprague-Dawley rats): did not alter gross locomotor activity
- acquisition and expression of cocaine-induced CPP (male Sprague-Dawley rats [2]; GVG 75 mg/kg, cocaine 20 mg/kg): not
- Time spent in chambers, Paired (male Sprague-Dawley rats [2]; [9]): 9.1 ± 1.1 min
- Time spent in chambers, Unpaired (male Sprague-Dawley rats [2]; [9]): 5.9 ± 1.2 min
- Time spent in chambers, Paired (male Sprague-Dawley rats [2]; [10]): 7.3 ± 0.5 min
- Time spent in chambers, Unpaired (male Sprague-Dawley rats [2]; [10]): 7.7 ± 0.6 min
- Time spent in chambers, Paired (male Sprague-Dawley rats [2]; [11]): 8.2 ± 0.5 min
- Time spent in chambers, Unpaired (male Sprague-Dawley rats [2]; [11]): 6.8 ± 0.5 min
- Time spent in chambers, Paired (male Sprague-Dawley rats [2]; [12]): 7.6 ± 0.6 min
- Time spent in chambers, Unpaired (male Sprague-Dawley rats [2]; [12]): 7.4 ± 0.6 min
- Time spent in chambers, Paired (male Sprague-Dawley rats [2]; [13]): 7.9 ± 0.8 min
- Time spent in chambers, Unpaired (male Sprague-Dawley rats [2]; [13]): 7.1 ± 0.8 min
- Time spent in chambers, Paired (male Sprague-Dawley rats [2]; [14]): 7.8 ± 0.6 min
- Time spent in chambers, Unpaired (male Sprague-Dawley rats [2]; [14]): 7.2 ± 0.6 min
- Time spent in chambers, Paired (male Sprague-Dawley rats [2]; [15]): 7.6 ± 0.7 min
- Time spent in chambers, Unpaired (male Sprague-Dawley rats [2]; [15]): 7.2 ± 0.7 min
- Time spent in chambers, Paired (male Sprague-Dawley rats [2]; [16]): 7.2 ± 0.4 min
- Time spent in chambers, Unpaired (male Sprague-Dawley rats [2]; [16]): 7.8 ± 0.4 min
- Time spent in chambers, Paired (male Sprague-Dawley rats [2]; [17]): 10.6 ± 0.6^3 min
- Time spent in chambers, Unpaired (male Sprague-Dawley rats [2]; [17]): 4.4 ± 0.9 min
- Time spent in chambers, Paired (male Sprague-Dawley rats [2]; [18]): 8.1 ± 0.7 min
- Time spent in chambers, Unpaired (male Sprague-Dawley rats [2]; [18]): 6.9 ± 0.6 min
- Time spent in chambers, Paired (male Sprague-Dawley rats [2]; [19]): 7.9 ± 0.3 min
- Time spent in chambers, Unpaired (male Sprague-Dawley rats [2]; [19]): 7.1 ± 0.3 min
- Time spent in chambers, Paired (male Sprague-Dawley rats [2]; [20]): 7.9 ± 0.5 min
- Time spent in chambers, Unpaired (male Sprague-Dawley rats [2]; [20]): 7.1 ± 0.6 min
- Time spent in chambers, Paired (male Sprague-Dawley rats [2]; [21]): 7.2 ± 0.3 min
- Time spent in chambers, Unpaired (male Sprague-Dawley rats [2]; [21]): 7.8 ± 0.3 min
- Time spent in chambers, Paired (male Sprague-Dawley rats [2]; [22]): 7.7 ± 0.2 min
- Time spent in chambers, Unpaired (male Sprague-Dawley rats [2]; [22]): 7.3 ± 1.1 min
- Time spent in chambers, Paired (male Sprague-Dawley rats [2]; [23]): 7.3 ± 0.4 min
- Time spent in chambers, Unpaired (male Sprague-Dawley rats [2]; [23]): 7.7 ± 0.3 min
- withdrawal signs or symptoms (rhesus monkeys; animals withdrawn from chronic GVG treatment): do not exhibit withdrawal signs or symptoms
- self-administration of GVG (rhesus monkeys; rhesus monkeys): not self-administered

Reference: patent US6890951B2, “Treatment of addiction and addiction-related behavior” (Brookhaven Science Associates LLC, priority 1998, dated 2005)
